Measured values: patent US10314843B2, “Combinations for the treatment of neoplasms using quiescent cell targeting and inhibitors of mitosis” (Felicitex Therapeutics, Inc., priority 2016, dated 2019)

How the values were obtained:
[1] = test system: SW620 cells; assay: FACS cell cycle distribution by DNA content (propidium iodide), SW620 cells in FBS- media; assay type: cell-based; settings: 24 hours in FBS- media, AZ191 2.5, 5, 10 μM, Compound I-7 1.25, 2.5, 5 μM
Procedure: Cell cultures were seeded into 6-well plates at 3×10^5-6×10^5 cells/well; the plated number of cells depended on cell size and rate of proliferation, aiming for approximately 50% confluency. After seeding, the cells were allowed to attach for 24 hours while incubated at 37° C. in a humidified 5% CO2 atmosphere, and then treated with compounds for desired amount of time (usually 24 hours) incubating under same conditions. Then the cells were harvested by trypsinization, pooled with the floating cells, washed in PBS, and fixed in 70% ice-cold ethanol overnight. […] […] The complete protocol and composition of buffers are described in the literature (Darzynkiewicz Z, Juan G, and Srour E F (2004) Differential Staining of DNA and RNA (2004). Current Protocols in Cytometry, Chapter 7:Unit 7.3).
The SW620 cells were cultured and treated as described in Example 1. For propidium iodide (PI) staining, manufacturer's protocol supplied with the Guava Cell Cycle Reagent for Flow Cytometry (EMD Millipore) was followed. The measurements were performed with Guava PCA-96 flow cytometer (EMD Millipore) using the green laser for excitation at 535 nm and monitoring emission at 617 nm.
The SW620 cells were cultured, treated, and analyzed as described in Examples 1. […]

[2] = test system: SW620 cells; assay: FACS cell cycle distribution (Acridine Orange), SW620 cells; assay type: cell-based; settings: combination of Compound I-7 (4 μM) with paclitaxel (2 nM), FBS+ media, 24 hours
From the text: (§1) The following cell lines were obtained from ATCC and cultured according to the ATCC recommendations: DMS273—small cell lung cancer cell line; H1975—non-small cell lung cancer cell line harboring L858R and T790M mutations in EGFR TK; A549—a non-small cell lung cancer cell line with wild type EGFR; LNCap—prostate cancer cell line; SW620—colon cancer cell line; MiaPaCa2—pancreatic cancer cell line; PANC1—pancreatic cancer cell line; OVCAR3—ovarian cancer cell line; SK-OV-3—ovarian cancer cell line.
(§2) Cell cultures were seeded into 6-well plates at 3×10^5-6×10^5 cells/well; the plated number of cells depended on cell size and rate of proliferation, aiming for approximately 50% confluency. After seeding, the cells were allowed to attach for 24 hours while incubated at 37° C. in a humidified 5% CO2 atmosphere, and then treated with compounds for desired amount of time (usually 24 hours) incubating under same conditions. Then the cells were harvested by trypsinization, pooled with the floating cells, washed in PBS, and fixed in 70% ice-cold ethanol overnight. For Acridine Orange (AO) staining, fixed cells were washed once with ice-cold PBS, re-suspended in 100 μL PBS, followed by addition of 200 μL of permeabilizing solution and 600 μL AO staining solution. The measurements were performed with Guava easyCyte HT flow cytometer (EMD Millipore) using the blue laser for excitation at 488 nm, monitoring emission of the AO-DNA complex at 526 nm and AO-RNA complex at 650 nm. The complete protocol and composition of buffers are described in the literature (Darzynkiewicz Z, Juan G, and Srour E F (2004) Differential Staining of DNA and RNA (2004). Current Protocols in Cytometry, Chapter 7:Unit 7.3).

[3] = test system: DMS273 cells; assay: FACS cell cycle distribution (Acridine Orange), DMS273 cells; assay type: cell-based; settings: FBS+ media, 24 hours
From the text: as §1, §2

[4] = test system: quiescent cancer cells; settings: in vitro; reported by Ewton et al. 2011; cited from earlier work
[5] = combination of Compound I-7 (4 μM) with vincristine (1.1 nM)
[6] = combination of Compound I-7 (4 μM) with vinorelbine (8.1 nM)
[7] = combination of Compound I-7 with paclitaxel

SMILES	fraction of cells in quiescent state (G0), based on fraction of cells in G0+G1 phase [1]	cytotoxicity (fraction of apoptotic cells, sub-G0 population) [2]	fraction of cells in G0 [2]	cytotoxicity (fraction of apoptotic cells, sub-G0 population) [3, 5]	fraction of cells in G0 [3, 5]	cytotoxicity (fraction of apoptotic cells, sub-G0 population) [3, 6]	fraction of cells in G0 [3, 6]	cytotoxicity (fraction of apoptotic cells, sub-G0 population) [3, 7]	fraction of cells in G0 [3, 7]	effectiveness against quiescent cancer cells [4]
CCOC(=N)c1nc2ccc3ncnc(Nc4cc(F)c(F)cc4Cl)c3c2s1 [Compound I-7]	significant decrease in fraction of cells in quiescent state (G0)	significantly higher than that of paclitaxel alone	significant reduction of the fraction of cells in G0	significantly higher than that of vincristine alone	significant reduction of the fraction of cells in G0	significantly higher than that of vinorelbine alone	significant reduction of the fraction of cells in G0	significantly higher than that of paclitaxel alone	significant reduction of the fraction of cells in G0	
COc1ncc2cc(C(=O)Nc3cc(C(=O)NCc4cccc(Cl)c4)ccc3Cl)c(=O)[nH]c2n1 [TC-S 7004]										effective against quiescent cancer cells in vitro
